Patent publication US20020156236A1, “Binding sites for phosphotyrosine binding domains” (priority 1995, published 2002)
Where two headings read alike, the source gives them in different places. Where a SMILES comes first, the peptide text is derived from it. Where no end group is shown, it is not given here.

Target: T1, PTB domain/c-erbB2 binding (GST-PTB domain of SHC; c-erbB2 from SKBR3 lysate) (Homo sapiens, UniProt P29353)
T1 construct: GST-PTB domain fusion proteins were expressed from recombinant baculovirus in sf9 cells; made in house; host or cells: Sf9 cells (recombinant baculovirus) for GST-PTB; c-erbB2 endogenous in SKBR3 cell lysate
T1 sequence (P29353 156-341): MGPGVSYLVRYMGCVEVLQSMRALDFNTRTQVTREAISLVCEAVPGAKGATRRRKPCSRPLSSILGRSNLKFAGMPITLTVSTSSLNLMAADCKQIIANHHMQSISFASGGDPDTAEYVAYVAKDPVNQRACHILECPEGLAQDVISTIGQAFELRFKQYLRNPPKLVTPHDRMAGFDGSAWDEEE
Assay: biochemical
Settings: for block of PTB/c-erbB2 interaction at one peptide concentration, in words: FIG. 2C, 300 nM peptides (legend says 500 nM)

[1] = approximate IC50, inhibition of PTB domain/c-erbB2 binding
[2] = Affinity (IC50), Table 3, ability to block PTB domain/c-erbB2 binding

`CC(C)C[C@H](NC(=O)[C@H](CC(N)=O)NC(=O)[C@H](CC(=O)O)NC(=O)[C@H](Cc1ccccc1)NC(=O)[C@H](C)N)C(=O)N[C@@H](Cc1ccc(O)cc1)C(=O)N[C@@H](Cc1ccc(OP(=O)(O)O)cc1)C(=O)N[C@@H](Cc1c[nH]c2ccccc12)C(=O)N[C@@H](CC(=O)O)C(=O)N[C@@H](CCC(N)=O)C(=O)N[C@@H](CC(N)=O)C(=O)N[C@@H](CO)C(=O)O` [AFDNLY (pY) WDQNS, AFDNLY(pY)WDQNS] (HELM PEPTIDE1{A.F.D.N.L.Y.[O=C([C@H](Cc1ccc(OP(=O)(O)O)cc1)N[*:1])[*:2]].W.D.Q.N.S}$$$$V2.0; N-terminus and C-terminus assumed) was tested, and the “IC50 compared with that of AFDNL(pY)(pY)WDQNS, in words” value was “approximately equal”, the IC50 (Affinity (IC50)) was 30 nM and the IC50 (Apparent Inhibition (IC50)) was 30 nM. For the same molecule, the “block of PTB/c-erbB2 interaction at one peptide concentration, in words” value was “completely block” and the IC50 [1] was about 30 nM.
With `CC(C)C[C@H](NC(=O)[C@H](CC(N)=O)NC(=O)[C@H](CC(=O)O)NC(=O)[C@H](Cc1ccccc1)NC(=O)[C@H](C)NC(=O)[C@@H]1CCCN1C(=O)[C@H](CO)NC(=O)[C@H](Cc1ccccc1)NC(=O)[C@H](C)NC(=O)[C@@H]1CCCN1)C(=O)N[C@@H](COP(=O)(O)O)C(=O)N[C@@H](COP(=O)(O)O)C(=O)N[C@@H](Cc1c[nH]c2ccccc12)C(=O)N[C@@H](CC(=O)O)C(=O)N[C@@H](CCC(N)=O)C(=O)N[C@@H](CC(N)=O)C(=O)N[C@@H](CO)C(=O)N[C@@H](CO)C(=O)N[C@@H](CCC(=O)O)C(=O)N[C@@H](CCC(N)=O)C(=O)NCC(=O)O` [PAFSPAFDNL (pS) (pS) WDQNSSEQG] (HELM PEPTIDE1{P.A.F.S.P.A.F.D.N.L.[O=C([C@H](COP(=O)(O)O)N[*:1])[*:2]].[O=C([C@H](COP(=O)(O)O)N[*:1])[*:2]].W.D.Q.N.S.S.E.Q.G}$$$$V2.0) the IC50 [2] was over 30000 nM.
With `CC(C)C[C@H](NC(=O)[C@H](CC(N)=O)NC(=O)[C@H](CC(=O)O)NC(=O)[C@H](Cc1ccccc1)NC(=O)[C@H](C)N)C(=O)N[C@@H](Cc1ccc(OP(=O)(O)O)cc1)C(=O)N[C@@H](Cc1ccc(O)cc1)C(=O)N[C@@H](Cc1c[nH]c2ccccc12)C(=O)N[C@@H](CC(=O)O)C(=O)N[C@@H](CCC(N)=O)C(=O)N[C@@H](CC(N)=O)C(=O)N[C@@H](CO)C(=O)O` [AFDNL (pY) YWDQNS, AFDNL(pY)YWDQNS] (HELM PEPTIDE1{A.F.D.N.L.[O=C([C@H](Cc1ccc(OP(=O)(O)O)cc1)N[*:1])[*:2]].Y.W.D.Q.N.S}$$$$V2.0; N-terminus and C-terminus assumed) the “fold less effective in competition” value was 30 fold, the “inhibition of / competition for PTB domain/c-erbB2 binding, in words” value was “strong inhibition” and the IC50 (Affinity (IC50)) was 1000 nM. The “block of PTB/c-erbB2 interaction at one peptide concentration, in words” value was “some inhibition”.
With `NC(Cc1ccccc1)C(=O)NC(Cc1ccccc1)C(=O)O` (stereo not drawn) the IC50 (Table 3, ability to block PTB domain/c-erbB2 binding, read-out: Affinity (IC50)) was over 30000 nM.
Molecule `CC(C)C[C@H](NC(=O)[C@@H]1CCCN1C(=O)[C@H](CC(C)C)NC(=O)[C@@H](NC(=O)[C@@H]1CCCN1C(=O)[C@H](CC(=O)O)NC(=O)[C@H](CCC(=O)O)NC(=O)[C@H](CO)NC(=O)[C@H](Cc1ccc(OP(=O)(O)O)cc1)NC(=O)[C@H](CCCNC(=N)N)NC(=O)[C@H](CCC(N)=O)NC(=O)[C@H](CC(C)C)NC(=O)[C@@H]1CCCN1C(=O)[C@H](CO)NC(=O)[C@H](CC(C)C)NC(=O)[C@H](CC(=O)O)NC(=O)[C@H](Cc1c[nH]cn1)NC(=O)[C@@H]1CCCN1C(=O)[C@@H](N)CO)[C@@H](C)O)C(=O)O` [SPHDLSPLQR (pY) SEDPTLPL] (HELM PEPTIDE1{S.P.H.D.L.S.P.L.Q.R.[O=C([C@H](Cc1ccc(OP(=O)(O)O)cc1)N[*:1])[*:2]].S.E.D.P.T.L.P.L}$$$$V2.0) has an IC50 (Apparent Inhibition (IC50)) of over 100000 nM.
Work on PAFSPAFDNLEEWDQNSSEQG yielded an IC50 [2] of over 30000 nM.
Molecule `CC(C)C[C@H](NC(=O)[C@H](Cc1ccc(OP(=O)(O)O)cc1)NC(=O)[C@H](CCC(=O)O)NC(=O)[C@@H]1CCCN1C(=O)[C@H](CC(N)=O)NC(=O)[C@H](CCC(=O)O)NC(=O)[C@@H](NC(=O)[C@H](C)NC(=O)CNC(=O)CNC(=O)[C@H](Cc1ccccc1)NC(=O)[C@H](C)N)C(C)C)C(=O)N[C@@H](C)C(=O)N1CCC[C@H]1C(=O)N[C@@H](CCCNC(=N)N)C(=O)N[C@@H](C)C(=O)NCC(=O)N[C@H](C(=O)N[C@@H](C)C(=O)N[C@@H](CO)C(=O)N[C@@H](CCC(N)=O)C(=O)O)[C@@H](C)O` [AFGGAVENPE (pY) LAPRAGTASQ, AFGGAVENPE(pY)LAPRAGTASQ] (HELM PEPTIDE1{A.F.G.G.A.V.E.N.P.E.[O=C([C@H](Cc1ccc(OP(=O)(O)O)cc1)N[*:1])[*:2]].L.A.P.R.A.G.T.A.S.Q}$$$$V2.0) has an IC50 (Apparent Inhibition (IC50)) of 1000 nM and an IC50 [1] of about 1000 nM.
In the case of `CC(C)C[C@H](NC(=O)[C@H](CCC(N)=O)NC(=O)[C@H](CC(N)=O)NC(=O)[C@H](CCC(N)=O)NC(=O)[C@H](CC(=O)O)NC(=O)[C@H](Cc1c[nH]c2ccccc12)NC(=O)[C@H](CO)NC(=O)[C@@H](N)CC(=O)O)C(=O)N[C@@H](Cc1ccccc1)C(=O)N[C@@H](CO)C(=O)N[C@@H](Cc1ccc(OP(=O)(O)O)cc1)C(=O)N[C@@H](Cc1ccc(OP(=O)(O)O)cc1)C(=O)N[C@@H](CO)C(=O)N[C@@H](Cc1ccccc1)C(=O)N[C@@H](C)C(=O)N1CCC[C@H]1C(=O)N[C@@H](CCC(=O)O)C(=O)NCC(=O)N1CCC[C@H]1C(=O)N[C@@H](C)C(=O)N[C@@H](CC(N)=O)C(=O)O` [DSWDQNQLFS (pY) (pY) SFAPEGPAN] (HELM PEPTIDE1{D.S.W.D.Q.N.Q.L.F.S.[O=C([C@H](Cc1ccc(OP(=O)(O)O)cc1)N[*:1])[*:2]].[O=C([C@H](Cc1ccc(OP(=O)(O)O)cc1)N[*:1])[*:2]].S.F.A.P.E.G.P.A.N}$$$$V2.0), the IC50 (Affinity (IC50)) is reported as over 30000 nM.
Work on `CC(C)C[C@H](NC(=O)[C@@H]1CCCN1C(=O)[C@H](C)N)C(=O)N[C@@H](C)C(=O)N[C@@H](CS)C(=O)N[C@@H](CO)C(=O)N1CCC[C@H]1C(=O)N[C@@H](CCC(N)=O)C(=O)N1CCC[C@H]1C(=O)N[C@@H](CCC(=O)O)C(=O)N[C@@H](Cc1ccc(OP(=O)(O)O)cc1)C(=O)N[C@H](C(=O)N[C@@H](CC(N)=O)C(=O)N[C@@H](CCC(N)=O)C(=O)N1CCC[C@H]1C(=O)N[C@@H](CCC(=O)O)C(=O)N[C@H](C(=O)N[C@@H](CCCNC(=N)N)C(=O)N1CCC[C@H]1C(=O)N[C@@H](CCC(N)=O)C(=O)N[C@@H](CO)C(=O)O)C(C)C)C(C)C` [APLACSPQPE (pY) VNQPEVRPQS, APLACSPQPE(pY)VNQPEVRPQS] (HELM PEPTIDE1{A.P.L.A.C.S.P.Q.P.E.[O=C([C@H](Cc1ccc(OP(=O)(O)O)cc1)N[*:1])[*:2]].V.N.Q.P.E.V.R.P.Q.S}$$$$V2.0) yielded an IC50 (Apparent Inhibition (IC50)) of over 100000 nM.
In the case of `CC(C)C[C@H](NC(=O)[C@@H]1CCCN1C(=O)[C@H](C)NC(=O)[C@@H](NC(=O)[C@H](Cc1ccc(OP(=O)(O)O)cc1)NC(=O)CNC(=O)[C@H](CC(=O)O)NC(=O)[C@@H](NC(=O)[C@H](CCC(=O)O)NC(=O)[C@@H]1CCCN1C(=O)[C@@H]1CCCN1C(=O)[C@H](CC(C)C)NC(=O)[C@@H]1CCCN1C(=O)[C@H](CC(C)C)NC(=O)[C@@H](N)[C@@H](C)O)[C@@H](C)O)C(C)C)C(=O)N[C@@H](C)C(=O)N[C@@H](CS)C(=O)N[C@@H](CO)C(=O)N1CCC[C@H]1C(=O)N[C@@H](CCC(N)=O)C(=O)O` [TLPLPPETDG (pY) VAPLACSPQ, TLPLPPETDG(pY)VAPLACSPQ] (HELM PEPTIDE1{T.L.P.L.P.P.E.T.D.G.[O=C([C@H](Cc1ccc(OP(=O)(O)O)cc1)N[*:1])[*:2]].V.A.P.L.A.C.S.P.Q}$$$$V2.0), the IC50 (Apparent Inhibition (IC50)) is reported as over 100000 nM.
